{
  "source": "patent US20260262643A1",
  "about": "“HERBICIDAL BENZOXAZINES” (FMC CORPORATION, priority 2022, published 2026)",
  "key": {"[1]": {"system": "soybean", "experiment": "Test C preemergence", "format": "in vivo, Glycine max", "how_it_was_run": "(§1)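 Visual injury ratings on a 0–100 scale (100 = complete control) were made against untreated controls 10 days after treatment in the greenhouse. Compounds, formulated with surfactant in non-phytotoxic solvent, were sprayed on soil preemergence or onto one- to two-leaf plants 2–10 cm tall postemergence.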"}, "[2]": {"system": "ryegrass, Italian", "experiment": "Test C postemergence", "format": "in vivo, Lolium multiflorum", "details": "10 days, 0 to 100 scale (0 no effect, 100 complete control)", "how_it_was_run": "as §1"}, "[3]": {"system": "kochia", "experiment": "Test C postemergence", "format": "in vivo, Bassia scoparia", "details": "10 days, 0 to 100 scale (0 no effect, 100 complete control)", "how_it_was_run": "as §1"}, "[4]": {"system": "kochia", "experiment": "Test C preemergence", "format": "in vivo, Bassia scoparia", "how_it_was_run": "as §1"}, "[5]": {"system": "barnyardgrass", "experiment": "Test D flooded paddy test", "format": "in vivo, Echinochloa crus-galli", "details": "250 g ai/ha, applied to paddy water, visual rating after 13 to 14 days, scale 0 to 100 (0 no effect, 100 complete control)", "how_it_was_run": "(§2)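 Plants at the 2-leaf stage were grown in pots flooded to 3 cm, and compound was applied directly into the paddy water, with depth kept throughout. After 13–14 days in a greenhouse, injury was rated visually against untreated controls on a 0–100 scale (100 = complete control); a dash means not tested.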"}, "[6]": {"system": "wheat", "experiment": "Test C preemergence", "format": "in vivo, Triticum aestivum", "how_it_was_run": "as §1"}, "[7]": {"system": "foxtail, giant", "experiment": "Test C postemergence", "format": "in vivo, Setaria faberi", "details": "10 days, 0 to 100 scale (0 no effect, 100 complete control)", "how_it_was_run": "as §1"}, "[8]": {"system": "horseweed", "experiment": "Test C postemergence", "format": "in vivo, Erigeron canadensis", "details": "10 days, 0 to 100 scale (0 no effect, 100 complete control)", "how_it_was_run": "as §1"}, "[9]": {"system": "blackgrass", "experiment": "Test C postemergence", "format": "in vivo, Alopecurus myosuroides", "details": "10 days, 0 to 100 scale (0 no effect, 100 complete control)", "how_it_was_run": "as §1"}, "[10]": {"system": "blackgrass", "experiment": "Test C preemergence", "format": "in vivo, Alopecurus myosuroides", "how_it_was_run": "as §1"}, "[11]": {"system": "oat, wild", "experiment": "Test C postemergence", "format": "in vivo, Avena fatua", "details": "10 days, 0 to 100 scale (0 no effect, 100 complete control)", "how_it_was_run": "as §1"}, "[12]": {"system": "barnyardgrass", "experiment": "Test C postemergence", "format": "in vivo, Echinochloa crusgalli", "details": "10 days, 0 to 100 scale (0 no effect, 100 complete control)", "how_it_was_run": "as §1"}, "[13]": {"system": "ducksalad", "experiment": "Test D flooded paddy test", "format": "in vivo, Heteranthera limosa", "details": "250 g ai/ha, applied to paddy water, visual rating after 13 to 14 days, scale 0 to 100 (0 no effect, 100 complete control)", "how_it_was_run": "as §2"}, "[14]": {"system": "pigweed, palmer", "experiment": "Test C preemergence", "format": "in vivo, Amaranthus palmeri", "how_it_was_run": "as §1"}, "[15]": {"system": "corn", "experiment": "Test C postemergence", "format": "in vivo, Zea mays", "details": "10 days, 0 to 100 scale (0 no effect, 100 complete control)", "how_it_was_run": "as §1"}, "[16]": {"system": "galium", "experiment": "Test C postemergence", "format": "in vivo, Galium aparine", "details": "10 days, 0 to 100 scale (0 no effect, 100 complete control)", "how_it_was_run": "as §1"}, "[17]": {"system": "oat, wild", "experiment": "Test C preemergence", "format": "in vivo, Avena fatua", "how_it_was_run": "as §1"}, "[18]": {"system": "sedge, umbrella", "experiment": "Test D flooded paddy test", "format": "in vivo, Cyperus difformis", "details": "250 g ai/ha, applied to paddy water, visual rating after 13 to 14 days, scale 0 to 100 (0 no effect, 100 complete control)", "how_it_was_run": "as §2"}, "[19]": {"system": "rice", "experiment": "Test D flooded paddy test", "format": "in vivo, Oryza sativa", "details": "250 g ai/ha, applied to paddy water, visual rating after 13 to 14 days, scale 0 to 100 (0 no effect, 100 complete control)", "how_it_was_run": "as §2"}, "[20]": {"system": "ryegrass, Italian", "experiment": "Test C preemergence", "format": "in vivo, Lolium multiflorum", "how_it_was_run": "as §1"}, "[21]": {"system": "foxtail, giant", "experiment": "Test C preemergence", "format": "in vivo, Setaria faberi", "how_it_was_run": "as §1"}, "[22]": {"system": "ragweed", "experiment": "Test C postemergence", "format": "in vivo, Ambrosia artemisiifolia", "details": "10 days, 0 to 100 scale (0 no effect, 100 complete control)", "how_it_was_run": "as §1"}, "[23]": {"system": "wheat", "experiment": "Test C postemergence", "format": "in vivo, Triticum aestivum", "details": "10 days, 0 to 100 scale (0 no effect, 100 complete control)", "how_it_was_run": "as §1"}, "[24]": {"system": "corn", "experiment": "Test C preemergence", "format": "in vivo, Zea mays", "how_it_was_run": "as §1"}, "[25]": {"system": "pigweed, palmer", "experiment": "Test C postemergence", "format": "in vivo, Amaranthus palmeri", "details": "10 days, 0 to 100 scale (0 no effect, 100 complete control)", "how_it_was_run": "as §1"}, "[26]": {"system": "barnyardgrass", "experiment": "Test C preemergence", "format": "in vivo, Echinochloa crusgalli", "how_it_was_run": "as §1"}, "[27]": {"system": "soybean", "experiment": "Test C postemergence", "format": "in vivo, Glycine max", "details": "10 days, 0 to 100 scale (0 no effect, 100 complete control)", "how_it_was_run": "as §1"}, "[28]": {"system": "ragweed", "experiment": "Test C preemergence", "format": "in vivo, Ambrosia artemisiifolia", "how_it_was_run": "as §1"}, "[29]": {"details": "500 g ai/ha, preemergence, 0 to 100 scale (0 no effect, 100 complete control)"}, "[30]": {"details": "Preemergence, 125 g ai/ha, 0 to 100 scale, 0 no effect, 100 complete control"}},
  "data": [
    {"smiles": "CCc1cc(C(=O)N2C[C@H](C)Oc3c(Cl)cccc32)cc(-n2cncn2)c1", "note": "[Compound 332]", "values": [
      {"measurement": "Soybean plant response rating", "setting": "[1]; [29]", "value": 0},
      {"measurement": "Plant response rating, Soybean", "setting": "[1]; [30]", "value": 0},
      {"measurement": "Plant response rating, Ryegrass, Italian", "setting": "[2]; 500 g ai/ha, postemergence", "value": 70},
      {"measurement": "Plant response rating, Ryegrass, Italian", "setting": "[2]; Postemergence, 125 g ai/ha", "value": 60},
      {"measurement": "Plant response rating, Kochia", "setting": "[3]; 500 g ai/ha, postemergence", "value": 60},
      {"measurement": "Plant response rating, Kochia", "setting": "[3]; Postemergence, 125 g ai/ha", "value": 10},
      {"measurement": "Kochia plant response rating", "setting": "[4]; [29]", "value": 50},
      {"measurement": "Plant response rating, Kochia", "setting": "[4]; [30]", "value": 0},
      {"measurement": "Plant response rating, Barnyardgrass (Flood)", "setting": "[5]", "value": 0},
      {"measurement": "Wheat plant response rating", "setting": "[6]; [29]", "value": 0},
      {"measurement": "Plant response rating, Wheat", "setting": "[6]; [30]", "value": 0},
      {"measurement": "Plant response rating, Foxtail, Giant", "setting": "[7]; 500 g ai/ha, postemergence", "value": 90},
      {"measurement": "Plant response rating, Foxtail, Giant", "setting": "[7]; Postemergence, 125 g ai/ha", "value": 40},
      {"measurement": "Plant response rating, Horseweed", "setting": "[8]; 500 g ai/ha, postemergence", "value": 0},
      {"measurement": "Plant response rating, Horseweed", "setting": "[8]; Postemergence, 125 g ai/ha", "value": 0},
      {"measurement": "Plant response rating, Blackgrass", "setting": "[9]; 500 g ai/ha, postemergence", "value": 70},
      {"measurement": "Plant response rating, Blackgrass", "setting": "[9]; Postemergence, 125 g ai/ha", "value": 30},
      {"measurement": "Blackgrass plant response rating", "setting": "[10]; [29]", "value": 80},
      {"measurement": "Plant response rating, Blackgrass", "setting": "[10]; [30]", "value": 80},
      {"measurement": "Plant response rating, Oat, Wild", "setting": "[11]; 500 g ai/ha, postemergence", "value": 30},
      {"measurement": "Plant response rating, Oat, Wild", "setting": "[11]; Postemergence, 125 g ai/ha", "value": 10},
      {"measurement": "Plant response rating, Barnyardgrass", "setting": "[12]; 500 g ai/ha, postemergence", "value": 70},
      {"measurement": "Plant response rating, Barnyardgrass", "setting": "[12]; Postemergence, 125 g ai/ha", "value": 40},
      {"measurement": "Plant response rating, Ducksalad (Flood)", "setting": "[13]", "value": 0},
      {"measurement": "Pigweed, Palmer plant response rating", "setting": "[14]; [29]", "value": 100},
      {"measurement": "Plant response rating, Pigweed, Palmer", "setting": "[14]; [30]", "value": 20},
      {"measurement": "Plant response rating, Corn", "setting": "[15]; 500 g ai/ha, postemergence", "value": 30},
      {"measurement": "Plant response rating, Corn", "setting": "[15]; Postemergence, 125 g ai/ha", "value": 30},
      {"measurement": "Plant response rating, Galium", "setting": "[16]; 500 g ai/ha, postemergence", "value": 100},
      {"measurement": "Plant response rating, Galium", "setting": "[16]; Postemergence, 125 g ai/ha", "value": 70},
      {"measurement": "Oat, Wild plant response rating", "setting": "[17]; [29]", "value": 30},
      {"measurement": "Plant response rating, Oat, Wild", "setting": "[17]; [30]", "value": 30},
      {"measurement": "Plant response rating, Sedge, Umbrella (Flood)", "setting": "[18]", "value": 0},
      {"measurement": "Plant response rating, Rice (Flood)", "setting": "[19]", "value": 0},
      {"measurement": "Ryegrass, Italian plant response rating", "setting": "[20]; [29]", "value": 90},
      {"measurement": "Plant response rating, Ryegrass, Italian", "setting": "[20]; [30]", "value": 60},
      {"measurement": "Foxtail, Giant plant response rating", "setting": "[21]; [29]", "value": 100},
      {"measurement": "Plant response rating, Foxtail, Giant", "setting": "[21]; [30]", "value": 70},
      {"measurement": "Plant response rating, Ragweed", "setting": "[22]; 500 g ai/ha, postemergence", "value": 20},
      {"measurement": "Plant response rating, Ragweed", "setting": "[22]; Postemergence, 125 g ai/ha", "value": 0},
      {"measurement": "Plant response rating, Wheat", "setting": "[23]; 500 g ai/ha, postemergence", "value": 20},
      {"measurement": "Plant response rating, Wheat", "setting": "[23]; Postemergence, 125 g ai/ha", "value": 20},
      {"measurement": "Corn plant response rating", "setting": "[24]; [29]", "value": 20},
      {"measurement": "Plant response rating, Corn", "setting": "[24]; [30]", "value": 20},
      {"measurement": "Plant response rating, Pigweed, Palmer", "setting": "[25]; 500 g ai/ha, postemergence", "value": 70},
      {"measurement": "Plant response rating, Pigweed, Palmer", "setting": "[25]; Postemergence, 125 g ai/ha", "value": 70},
      {"measurement": "Barnyardgrass plant response rating", "setting": "[26]; [29]", "value": 90},
      {"measurement": "Plant response rating, Barnyardgrass", "setting": "[26]; [30]", "value": 50},
      {"measurement": "Plant response rating, Soybean", "setting": "[27]; 500 g ai/ha, postemergence", "value": 100},
      {"measurement": "Plant response rating, Soybean", "setting": "[27]; Postemergence, 125 g ai/ha", "value": 90},
      {"measurement": "Ragweed plant response rating", "setting": "[28]; [29]", "value": 0},
      {"measurement": "Plant response rating, Ragweed", "setting": "[28]; [30]", "value": 0}
    ]}
  ]
}
